PMC2834880 (International journal of biological macromolecules, 2010)
“Also recorded” adds a separate entry of the source. Where two headings read alike, the source gives them in different places. Where no end group is shown, it is not given here.

Experiments:
[1] = test system: E. coli strain pBWU13.4/DK8; format: cell-based, Escherichia coli
[2] = test system: wild-type E. coli strain pBWU13.4/DK; format: cell-based, Escherichia coli
[3] = molecular target: purified F1 and membrane bound F1Fo E. coli ATP synthase (Escherichia coli, UniProt P0ABB4); assay: biochemical
[4] = succinate plates, limiting glucose, or LB media

purified F1 and membrane bound F1Fo E. coli ATP synthase, sequence (P0ABB4 whole entry, looked up): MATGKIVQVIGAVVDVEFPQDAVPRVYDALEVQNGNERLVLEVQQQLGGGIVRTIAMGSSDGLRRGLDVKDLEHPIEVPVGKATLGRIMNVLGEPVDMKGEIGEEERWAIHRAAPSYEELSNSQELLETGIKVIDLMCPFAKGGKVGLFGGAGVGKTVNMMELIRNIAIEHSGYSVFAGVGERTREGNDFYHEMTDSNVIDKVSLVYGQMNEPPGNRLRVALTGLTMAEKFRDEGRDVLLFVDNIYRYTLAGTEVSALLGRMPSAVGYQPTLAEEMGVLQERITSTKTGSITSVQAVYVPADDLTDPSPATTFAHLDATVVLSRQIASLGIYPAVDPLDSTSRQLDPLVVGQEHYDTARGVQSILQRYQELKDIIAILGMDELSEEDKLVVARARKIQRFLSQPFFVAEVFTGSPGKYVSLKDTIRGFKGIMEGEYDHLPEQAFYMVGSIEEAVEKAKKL

Molecule | Growth yield on limiting glucose (%) [1] [%] | ATPase inhibition (%) [3] [%] | growth of E. coli in presence of peptide [2] | other results
XT-7: amphibian antimicrobial peptide, Xenopus tropicalis, 18 residues (GLLGPLLKIAAKVGSNLL) | 89 | – | – | growth of E. coli in presence of peptide [2, 4]: did not affect growth
Magainin II | – | 20 | did not affect growth | maximal inhibition of ATPase activity [3]: ~ 20%
Citropin 1.1 | – | 57 | no growth; also recorded: abrogated growth | residual ATPase activity at maximal inhibition [3]: ~ 43%
Caerin 1.8: amphibian antimicrobial peptide, Litoria chloris, 24 residues (GLFKVLGSVAKHLLPHVVPVIAEK) | 99 | – | – | growth of E. coli in presence of peptide ([2]; succinate plates, limiting glucose, or LB media, listed as carein 1.8): did not affect growth
Aurein 2.2: amphibian antimicrobial peptide, Litoria aurea, 16 residues (GLFDIVKKVVGALGSL-NH2) | 12 | – | – | more inhibition of ATPase than aurein 2.3 ([3]; Leu-13 (aurein 2.2) instead of Ile-13 (aurein 2.3)): ~ 40%; growth of E. coli in presence of peptide [2, 4]: no growth; also recorded: abrogated growth
Aurein 2.3: amphibian antimicrobial peptide, Litoria aurea, 16 residues (GLFDIVKKVVGAIGSL-NH2) | 24 | – | – | growth of E. coli in presence of peptide [2, 4]: no growth; also recorded: abrogated growth
Ascaphin-8 | – | 59 | no growth; also recorded: abrogated growth | residual ATPase activity at maximal inhibition [3]: ~ 41%
AIGSILGALAKGLPTLISWIKNR [MRP] | – | – | – | IC50 [3]: ~4.77 µM
CC[C@H](C)[C@H](NC(=O)CN)C(=O)NCC(=O)N[C@@H](C)C(=O)N[C@H](C(=O)N[C@@H](CC(C)C)C(=O)N[C@@H](CCCCN)C(=O)N[C@H](C(=O)N[C@@H](CC(C)C)C(=O)N[C@H](C(=O)N[C@H](C(=O)NCC(=O)N[C@@H](CC(C)C)C(=O)N1CCC[C@H]1C(=O)N[C@@H](C)C(=O)N[C@@H](CC(C)C)C(=O)N[C@H](C(=O)N[C@@H](CO)C(=O)N[C@@H](Cc1c[nH]c2ccccc12)C(=O)N[C@H](C(=O)N[C@@H](CCCCN)C(=O)N[C@@H](CCCNC(=N)N)C(=O)N[C@@H](CCCCN)C(=O)N[C@@H](CCCNC(=N)N)C(=O)N[C@@H](CCC(N)=O)C(=O)N[C@@H](CCC(N)=O)C(N)=O)[C@@H](C)CC)[C@@H](C)CC)[C@@H](C)O)[C@@H](C)O)C(C)C)C(C)C [Melittin-NH2, reference compound] | – | – | – | IC50 [3]: ~4.68 µM
Dermaseptin | – | 26 | no growth; also recorded: abrogated growth | residual ATPase activity at maximal inhibition [3]: ~ 74%
Caerin 1.9 | – | 52 | – | maximal inhibition of ATPase activity [3]: ~ 52%
